# Data from US20210392889A1, “COMPOSITIONS COMPRISING PYRIDINE CARBOXYLATE HERBICIDES WITH PDS INHIBITOR HERBICIDES” (Corteva Agriscience LLC, priority 2018, published 2021).
# Legend:
# Settings in all cases: for visual injury: Table 1
# [1] = system: Russian thistle (SASKR, Salsola kali); assay: Greenhouse postemergence herbicidal effect, visual injury after 20-22 d; format: in vivo
# How it was run: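 Visual injury ratings (0 = no injury, 100 = complete kill) were made against solvent-blank controls on sub-irrigated greenhouse plants. Spray solutions contained the pyridine carboxylate with cloquintocet-mexyl plus 1.25% v/v seed-oil adjuvant, in two- or three-way combinations with a PDS inhibitor, applied at 187 L/ha to plants at the second or third true leaf stage.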
# spring wheat (TRZAS) = assay: Greenhouse postemergence phytotoxicity on crop, visual injury after 20-22 d; format: in vivo, Triticum aestivum
# Excerpt: (§1) Seeds of the desired test plant species were planted in a 90:10% v/v (volume/volume) mixture of PRO-MIX® BX (Premier Tech Horticulture, Quakertown, Pa., USA) and PROFILE® GREENS GRADE™ (Profile Products LLC, Buffalo Grove, Ill., USA) planting mixture, which typically has a pH of 5.2 to 6.2 and an organic matter content of at least 50 percent, in plastic pots with a surface area of 103.2 square centimeters (cm^2). In some aspects, to ensure good germination and healthy plants, a fungicide treatment and/or other chemical or physical treatment was applied. The plants were grown for 7-36 days (d) in a greenhouse with an approximate 14-hour (h) photoperiod which was maintained at about 23° C. during the day and 22° C. during the night. Nutrients and water were added on a regular basis and supplemental lighting was provided with overhead metal halide 1000-Watt lamps as necessary. The plants were employed for testing when they reached the second or third true leaf stage.
# (§2) Emulsifiable concentrates of each of each pyridine carboxylate herbicide (Compound A or Compound B) were prepared at 100 grams acid equivalent per liter (g ae/L). The emulsifiable concentrates also included a safener, cloquintocet-mexyl, at 120 grams active ingredient per liter (g ai/L). An aliquot of each emulsifiable concentrate was placed in a 25 mL glass vial and diluted with an aqueous mixture of 1.25% (v/v) ACTIROB® B esterified rapeseed oil (Bayer Crop Science, Research Triangle Park, N.C., USA) or MSO® Concentrate with LECI-TECH® methylated soybean oil (Loveland Products, Loveland, Colo., USA) to obtain concentrated stock solutions at the highest application rate for each herbicide, based upon a 12 milliliter (mL) application volume at a rate of 187 liters per hectare (L/ha). The concentrated stock solutions were further diluted with an aqueous mixture of 1.25% v/v ACTIROB® B or MSO® Concentrate with LECI-TECH® to obtain stock solutions at reduced application rates for each herbicide. Spray solutions of the herbicide combinations (Compound A or Compound B plus PDS inhibitor herbicide) were prepared by adding weighed amounts or aliquots of the PDS inhibitor herbicide to the stock solutions of Compound A or Compound B to form 12-mL spray solutions in two- or three-way combinations.
# (§3) The spray solutions were applied to the plant material with an overhead Mandel track sprayer equipped with 8002E nozzles calibrated to deliver 187 L/ha over an application area of 0.503 square meters (m^2) at a spray height of 18 inches ([…] centimeters (cm)) above the average plant canopy. Control plants were sprayed in the same manner with the solvent blank. All pyridine carboxylate herbicide (component a) application rates are given as “g ae/ha” and all PDS inhibitor herbicide (component b) application rates are given as “g ai/ha.”
# (§4) The treated plants and control plants were placed in a greenhouse as described above and watered by sub-irrigation to prevent wash-off of the test compounds. After 20-22 d, the condition of the test plants as compared with that of the control plants was determined visually and scored on a scale of 0 to 100 percent where 0 corresponds to no injury and 100 corresponds to complete kill.
# spring barley (HORVS) = assay: as above; format: in vivo, Hordeum vulgare
# Excerpt: as §1, §2, §3, §4
smiles,measurement,setting,value
"N#CCOC(=O)c1nc(-c2ccc3cc[nH]c3c2F)c(F)c(N)c1Cl [Compound A, cyanomethyl 4-amino-3-chloro-5-fluoro-6-(7-fluoro-1H-indol-6-yl)pyridine-2-carboxylate]",visual injury,[1]; 7.5 g/ha,60%
same,visual injury Obs,"[1]; 7.5 g/ha, Table 2",45%
same,visual injury Obs,"[1]; 7.5 g/ha, Table 3",38%
same,visual injury Obs,"[1]; 7.5 g/ha, Table 8",55%
same,visual injury,[1]; 10 g/ha,63%
same,visual injury Obs,"[1]; 10 g/ha, Table 2",60%
same,visual injury Obs,"[1]; 10 g/ha, Table 3",63%
same,visual injury Obs,"[1]; 10 g/ha, Table 8",58%
same,visual injury Obs,"[1]; 15 g/ha, Table 8",65%
same,visual injury,spring wheat (TRZAS); 7.5 g/ha,0%
same,visual injury Obs,"spring wheat (TRZAS); 7.5 g/ha, Table 2",0%
same,visual injury Obs,"spring wheat (TRZAS); 7.5 g/ha, Table 3",0%
same,visual injury Obs,"spring wheat (TRZAS); 7.5 g/ha, Table 5",0%
same,visual injury Obs,"spring wheat (TRZAS); 7.5 g/ha, Table 6",0%
same,visual injury Obs,"spring wheat (TRZAS); 7.5 g/ha, Table 7",0%
same,visual injury Obs,"spring wheat (TRZAS); 7.5 g/ha, Table 8",3%
same,visual injury,spring wheat (TRZAS); 10 g/ha,0%
same,visual injury Obs,"spring wheat (TRZAS); 10 g/ha, Table 2",0%
same,visual injury Obs,"spring wheat (TRZAS); 10 g/ha, Table 3",0%
same,visual injury Obs,"spring wheat (TRZAS); 10 g/ha, Table 5",0%
same,visual injury Obs,"spring wheat (TRZAS); 10 g/ha, Table 6",0%
same,visual injury Obs,"spring wheat (TRZAS); 10 g/ha, Table 7",0%
same,visual injury Obs,"spring wheat (TRZAS); 10 g/ha, Table 8",3%
same,visual injury Obs,"spring wheat (TRZAS); 15 g/ha, Table 8",0%
same,visual injury,spring barley (HORVS); 7.5 g/ha,0%
same,visual injury Obs,"spring barley (HORVS); 7.5 g/ha, Table 2",8%
same,visual injury Obs,"spring barley (HORVS); 7.5 g/ha, Table 3",0%
same,visual injury Obs,"spring barley (HORVS); 7.5 g/ha, Table 7",0%
same,visual injury Obs,"spring barley (HORVS); 7.5 g/ha, Table 8",8%
same,visual injury,spring barley (HORVS); 10 g/ha,0%
same,visual injury Obs,"spring barley (HORVS); 10 g/ha, Table 2",0%
same,visual injury Obs,"spring barley (HORVS); 10 g/ha, Table 3",0%
same,visual injury Obs,"spring barley (HORVS); 10 g/ha, Table 7",0%
same,visual injury Obs,"spring barley (HORVS); 10 g/ha, Table 8",5%
same,visual injury Obs,"spring barley (HORVS); 15 g/ha, Table 8",3%
